Laboratory results published in PMC12169663, “Deciphering the Tumor Uptake of Heterobivalent (SST2/Albumin) [^64Cu]Cu-NODAGA-cLAB-TATEs” (Journal of Medicinal Chemistry, 2025).

What was measured:
in vivo = settings: female, NMRI-nu/nu (Rj:NMRI-Foxn1nu/nu), mouse, iv, total radioactivity
Protocol: The biodistribution of [ ^ 64 Cu]­Cu-NODAGA-cLAB­(5/6)-TATE, [ ^ 64 Cu]­Cu-NODAGA-cLAB4- scr TATE, and [ ^ 64 Cu]­Cu-DOTA-EB-TATE was assessed in a subcutaneous MPC tumor allograft model via small-animal PET imaging (Figure A–D). The time-activity curves (TACs) for tumor, kidneys, and heart are shown in Figure A–D (for TACs of muscle and liver, see Figure S6) and the calculated areas under curves (AUC0–48h) and tumor-to-tissue ratios are graphically summarized in Figure E,F, respectively.
(A–D) Time-activity curves (SUV, decay-corrected, as a function of time up to 48 h) obtained by PET acquisition are depicted (0–2 h in dynamic mode and time points 5, 24, and 48 h p.i.; the x-axes are segmented accordingly). Data shown are mean values (±SD) of a group of MPC tumor-bearing NMRI-nu/nu mice (n = 2, but for cLAB6-TATE n = 4). […] (E) Calculated AUC0–48h values. Data shown are mean values (±SD). (F) Tumor/organ ratios based in the AUC0–48h values.
A number of 4 × 10^6 MPC cells were resuspended in 40 μL of Dulbecco’s phosphate-buffered saline and injected subcutaneously into the shoulder of 7–10-week-old female nude mice (Rj:NMRI-Foxn1^nu/nu, Janvier Laboratories, Le Genest-Saint-Isle, France). General anesthesia was induced and maintained with inhalation of 10% (v/v) desflurane in 30% oxygen/air (v/v). Tumor growth was monitored using caliper measurements. Animals were sacrificed using CO2 inhalation and cervical dislocation. When diameters of MPC tumors reached 8 ± 3 mm (volumes of 65–282 mm^3), small-animal positron emission tomography (PET) was performed using the nanoScan PET/CT (Mediso Medical Imaging Systems, Budapest, Hungary) and Si78 PET/CT (BRUKER, Billerica, MA) instruments. Scanners were cross-calibrated using a syringe source containing 10 MBq of [^64Cu]­CuCl2 diluted in 2 mL of 0.01 M HCl. Each mouse (n = 2) received between 7 and 10 MBq of the respective radioligand (A m = 40 GBq/μmoL) delivered in 0.154 M NaCl via intravenous injection through a tail vein catheter within the initial 30 s after scan start. […] Standardized uptake values (SUV = [MBq detected activity/mL tissue]/[MBq injected activity/g body weight]) were determined in defined volumes of interest (VOIs) and reported as VOI-averaged SUVmean ± range [min–max]. Assuming a density of 1 g/mL for body tissues, the SUVs become dimensionless.

[1] = biological target: human serum albumin (HSA) (Homo sapiens, UniProt P02768)
Protocol: The ultrafiltration assay used to quantify the binding of the ^64Cu-labeled peptides to HSA was performed as previously described for NODAGA-cLAB-TATEs. , Briefly, a constant activity amount of the radioligands (10–15 MBq) were mixed with different HSA concentrations (200 nM–1.4 mM). Aliquots were loaded into the ultrafiltration devices (4104 centrifugal filter units by Millipore; 30 000 Da nominal molecular weight limit, methylcellulose micropartition membranes) and centrifuged. After centrifugation, aliquots from the top and bottom fractions were measured in a γ-counter (PerkinElmer, Wizard^2 2480 automatic gamma counter). The retained fraction was calculated as a quotient of these measurements. The dissociation constant, K d, was calculated using the Morrison equation.

[2] = system: SST2-transfected HTC116 cells; design: method as in not given; settings: nonlabeled ligands, ref not given; cited from earlier work
intact AR42J cells = system: intact AR42J cells; design: method as in not given; settings: nonlabeled ligands, ref not given; cited from earlier work

Sequence of human serum albumin (HSA) (P02768 25-609): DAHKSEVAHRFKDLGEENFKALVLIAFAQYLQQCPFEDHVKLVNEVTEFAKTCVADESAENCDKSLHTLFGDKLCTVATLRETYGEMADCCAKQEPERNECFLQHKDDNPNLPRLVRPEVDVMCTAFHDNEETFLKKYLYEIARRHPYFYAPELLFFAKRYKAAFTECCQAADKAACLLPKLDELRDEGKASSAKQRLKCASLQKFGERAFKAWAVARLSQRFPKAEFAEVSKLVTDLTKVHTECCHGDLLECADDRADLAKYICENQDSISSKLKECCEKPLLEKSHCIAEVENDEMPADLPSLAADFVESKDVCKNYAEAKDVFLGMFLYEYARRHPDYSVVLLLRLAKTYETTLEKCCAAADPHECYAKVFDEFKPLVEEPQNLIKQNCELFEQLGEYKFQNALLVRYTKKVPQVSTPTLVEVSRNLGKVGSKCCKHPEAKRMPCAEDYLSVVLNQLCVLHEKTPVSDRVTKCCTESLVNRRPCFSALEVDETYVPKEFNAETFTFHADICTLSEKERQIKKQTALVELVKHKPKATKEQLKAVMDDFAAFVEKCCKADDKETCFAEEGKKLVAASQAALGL

Row | Molecule | SUV at 24 h (in vivo) | SUV at 48 h (in vivo) | SUV at 72 h (in vivo) | Kd [1] | logD | IC50 [2] | IC50 (intact AR42J cells)
1 | Cc1cc(-c2ccc(NC(=O)[C@H](CCCCNC(=O)CCN3C(=O)CC(SCCC(=O)N[C@H](Cc4ccccc4)C(=O)N[C@H]4CSSC[C@@H](C(=O)N[C@H](C(=O)O)[C@@H](C)O)NC(=O)[C@H]([C@@H](C)O)NC(=O)[C@H](CCCCN)NC(=O)[C@@H](Cc5c[nH]c6ccccc56)NC(=O)[C@H](Cc5ccc(O)cc5)NC4=O)C3=O)NC(=O)CN3CCN(CC(=O)O)CCN(CC(=O)O)CCN(CC(=O)O)CC3)c(C)c2)ccc1/N=N/c1ccc2c(S(=O)(=O)O)cc(S(=O)(=O)O)c(N)c2c1O (stereo partly shown) [[64Cu]Cu-DOTA-EB-TATE, metal not drawn] | 6 SUV | 5.6 SUV | 5.6 SUV | 1200 nM | -2.26 |  | 
2 | DOTA-TATE |  |  |  |  |  | 10.2 nM | 3.46 nM
